Measured values taken from patent publication US20220323406A1, “METHODS AND COMPOSITIONS FOR DIFFERENTIATING STEM CELLS” (Massachusetts Institute of Technology, priority 2019, published 2022).

Tests used:
ENR+CD organoids = assay: Primary screen: ATP (CellTiter-Glo 3D, CTG) cell number/viability, 2.5-D 384-well ENR+CD organoids; details: primary screen;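 note: compounds given at plating and again on day 3 over a 6-day differentiation from ENR+CV stem-cell-enriched precursors, ATP measured on day 6, plate median as control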
[1] = test system: ENR+CD organoids (ISC to Paneth cell differentiation); assay: Primary screen: CCh-stimulated lysozyme secretion LYZ.S, 2.5-D 384-well ENR+CD organoid differentiation; format: cell-based, mouse; details: primary screen
From the text: (§1) High-throughput screening.

[2] = test system: ENR+CD organoids (ISC to Paneth cell differentiation); assay: Primary screen: basal (non-stimulated) lysozyme secretion LYZ.NS, 2.5-D 384-well ENR+CD organoid differentiation; format: cell-based, mouse
From the text: as §1

[3] = dose 0.08 uM, FC vs plate median
[4] = dose 0.40 uM, FC vs plate median
[5] = dose 2.00 uM, FC vs plate median
[6] = dose 10.00 uM, FC vs plate median
[7] = primary screen, dose 0.08 uM, standard z score
[8] = primary screen, dose 0.40 uM, standard z score
[9] = primary screen, dose 2.00 uM, standard z score
[10] = primary screen, dose 10.00 uM, standard z score
[11] = primary screen; dose 0.08 uM; FC vs plate median
[12] = primary screen; dose 0.40 uM; FC vs plate median
[13] = primary screen; dose 2.00 uM; FC vs plate median
[14] = primary screen; dose 10.00 uM; FC vs plate median

In the case of `CC(C)CCN1c2nc(Nc3cc(F)c(O)c(F)c3)ncc2N(C)C(=O)C1C` (stereo not shown) [BI-D1870], the Dose.FC.CTG (ENR+CD organoids; dose 0.08 uM) is reported as 0.186 log2 fold change, the “Z.CTG (standard z score)” value (ENR+CD organoids; dose 0.08 uM) is reported as 0.444 and the Dose.FC.CTG (ENR+CD organoids; dose 0.40 uM) is reported as 0.029 log2 fold change. The “Z.CTG (standard z score)” value (ENR+CD organoids; dose 0.40 uM) was 0.069, the Dose.FC.CTG (ENR+CD organoids; dose 2.00 uM) was −0.012 log2 fold change and the “Z.CTG (standard z score)” value (ENR+CD organoids; dose 2.00 uM) was −0.028. For the same molecule, the Dose.FC.CTG (ENR+CD organoids; dose 10.00 uM) was −0.700 log2 fold change, the “Z.CTG (standard z score)” value (ENR+CD organoids; dose 10.00 uM) was −1.673 and the Dose.FC.LYZ.S ([1]; dose 0.08 uM) was 0.162 log2 fold change. For the same molecule, the Dose.FC.LYZ.S ([1]; dose 0.40 uM) was 0.158 log2 fold change, the Dose.FC.LYZ.S ([1]; dose 2.00 uM) was 0.008 log2 fold change and the Dose.FC.LYZ.S ([1]; dose 10.00 uM) was −0.378 log2 fold change. For the same molecule, the Dose.FC.LYZ.NS ([2]; primary screen, dose 0.08 uM) was 0.141 log2 fold change, the “Z.LYZ.NS (standard z score)” value ([2]; primary screen, dose 0.08 uM) was 1.225 and the Dose.FC.LYZ.NS ([2]; primary screen, dose 0.40 uM) was 0.126 log2 fold change. For the same molecule, the “Z.LYZ.NS (standard z score)” value ([2]; primary screen, dose 0.40 uM) was 1.099, the Dose.FC.LYZ.NS ([2]; primary screen, dose 2.00 uM) was −0.066 log2 fold change and the “Z.LYZ.NS (standard z score)” value ([2]; primary screen, dose 2.00 uM) was −0.574. For the same molecule, the Dose.FC.LYZ.NS ([2]; primary screen, dose 10.00 uM) was −0.285 log2 fold change and the “Z.LYZ.NS (standard z score)” value ([2]; primary screen, dose 10.00 uM) was −2.483.
For `O=C(/C=C/c1ccc(O)c(O)c1)OCCc1ccccc1` [Caffeic Acid Phenethyl Ester], the Dose.FC.CTG (ENR+CD organoids; dose 0.08 uM) was 0.262 log2 fold change, the Dose.FC.CTG (ENR+CD organoids; dose 0.40 uM) was −0.011 log2 fold change and the Dose.FC.CTG (ENR+CD organoids; dose 2.00 uM) was −0.064 log2 fold change. The Dose.FC.CTG (ENR+CD organoids; dose 10.00 uM) was −0.511 log2 fold change, the Dose.FC.LYZ.S ([1]; dose 0.08 uM) was 0.189 log2 fold change and the Dose.FC.LYZ.S ([1]; dose 0.40 uM) was 0.070 log2 fold change. The Dose.FC.LYZ.S ([1]; dose 2.00 uM) was −0.021 log2 fold change, the Dose.FC.LYZ.S ([1]; dose 10.00 uM) was −0.117 log2 fold change and the Dose.FC.LYZ.NS ([2]; primary screen, dose 0.08 uM) was 0.053 log2 fold change. For the same molecule, the Dose.FC.LYZ.NS ([2]; primary screen, dose 0.40 uM) was 0.167 log2 fold change, the Dose.FC.LYZ.NS ([2]; primary screen, dose 2.00 uM) was 0.090 log2 fold change and the Dose.FC.LYZ.NS ([2]; primary screen, dose 10.00 uM) was −0.026 log2 fold change. The Z.LYZ.NS ([2]; primary screen, standard z score, dose 0.08 uM) was 0.465, the Z.LYZ.NS ([2]; primary screen, standard z score, dose 0.40 uM) was 1.453 and the Z.LYZ.NS ([2]; primary screen, standard z score, dose 2.00 uM) was 0.781. For the same molecule, the Z.LYZ.NS ([2]; primary screen, standard z score, dose 10.00 uM) was −0.227.
Work on `O=C(O)c1ccc(Nc2ncc3c(n2)-c2ccc(Cl)cc2C(c2c(F)cccc2F)=NC3)cc1` [MLN8054] yielded a Dose.FC.CTG (ENR+CD organoids; [3]) of 0.026 log2 fold change, a Dose.FC.CTG (ENR+CD organoids; [4]) of 0.014 log2 fold change and a Dose.FC.CTG (ENR+CD organoids; [5]) of −0.465 log2 fold change. The Dose.FC.CTG (ENR+CD organoids; [6]) was −0.498 log2 fold change, the Dose.FC.LYZ.S [1, 3] was 0.042 log2 fold change and the Dose.FC.LYZ.S [1, 4] was 0.167 log2 fold change. For the same molecule, the Dose.FC.LYZ.S [1, 5] was −0.087 log2 fold change, the Dose.FC.LYZ.S [1, 6] was −0.197 log2 fold change and the Z.LYZ.NS [2, 7] was 0.574. For the same molecule, the Z.LYZ.NS [2, 8] was 0.066, the Z.LYZ.NS [2, 9] was −0.868 and the Z.LYZ.NS [2, 10] was −0.979. It also gave a Dose.FC.LYZ.NS [2, 11] of 0.066 log2 fold change, a Dose.FC.LYZ.NS [2, 12] of 0.008 log2 fold change and a Dose.FC.LYZ.NS [2, 13] of −0.100 log2 fold change. It also gave a Dose.FC.LYZ.NS [2, 14] of −0.112 log2 fold change.
For `CC(C)c1noc(N2CCC(COc3ccc(-c4ccc(S(C)(=O)=O)cc4)nc3)CC2)n1` [GSK1292263], the “Dose.FC.CTG (log2 fold change)” value (ENR+CD organoids; dose 0.08 uM) was 0.161, the “Z.CTG (standard z score)” value (ENR+CD organoids; dose 0.08 uM) was 0.384 and the “Dose.FC.CTG (log2 fold change)” value (ENR+CD organoids; dose 0.40 uM) was 0.192. The “Z.CTG (standard z score)” value (ENR+CD organoids; dose 0.40 uM) was 0.458, the “Dose.FC.CTG (log2 fold change)” value (ENR+CD organoids; dose 2.00 uM) was 0.224 and the “Z.CTG (standard z score)” value (ENR+CD organoids; dose 2.00 uM) was 0.535. The “Dose.FC.CTG (log2 fold change)” value (ENR+CD organoids; dose 10.00 uM) was 0.196, the “Z.CTG (standard z score)” value (ENR+CD organoids; dose 10.00 uM) was 0.468 and the “Dose.FC.LYZ.S (log2 fold change)” value ([1]; dose 0.08 uM) was 0.111. The “Dose.FC.LYZ.S (log2 fold change)” value ([1]; dose 0.40 uM) was 0.101, the “Dose.FC.LYZ.S (log2 fold change)” value ([1]; dose 2.00 uM) was 0.060 and the “Dose.FC.LYZ.S (log2 fold change)” value ([1]; dose 10.00 uM) was 0.027. For the same molecule, the “Dose.FC.LYZ.NS (log2 fold change)” value ([2]; primary screen, dose 0.08 uM) was 0.078, the “Z.LYZ.NS (standard z score)” value ([2]; primary screen, dose 0.08 uM) was 0.681 and the “Dose.FC.LYZ.NS (log2 fold change)” value ([2]; primary screen, dose 0.40 uM) was 0.050. For the same molecule, the “Z.LYZ.NS (standard z score)” value ([2]; primary screen, dose 0.40 uM) was 0.434, the “Dose.FC.LYZ.NS (log2 fold change)” value ([2]; primary screen, dose 2.00 uM) was 0.028 and the “Z.LYZ.NS (standard z score)” value ([2]; primary screen, dose 2.00 uM) was 0.240. For the same molecule, the “Dose.FC.LYZ.NS (log2 fold change)” value ([2]; primary screen, dose 10.00 uM) was 0.020 and the “Z.LYZ.NS (standard z score)” value ([2]; primary screen, dose 10.00 uM) was 0.173.
With `C=CCn1c(=O)c2cnc(Nc3ccc(N4CCN(C)CC4)cc3)nc2n1-c1cccc(C(C)(C)O)n1` [MK-1775] the Dose.FC.CTG (ENR+CD organoids; [3]) was 0.165 log2 fold change, the Dose.FC.CTG (ENR+CD organoids; [4]) was −0.450 log2 fold change and the Dose.FC.CTG (ENR+CD organoids; [5]) was −0.804 log2 fold change. For the same molecule, the Dose.FC.CTG (ENR+CD organoids; [6]) was −1.026 log2 fold change, the Dose.FC.LYZ.S [1, 3] was 0.066 log2 fold change and the Dose.FC.LYZ.S [1, 4] was −0.217 log2 fold change. The Dose.FC.LYZ.S [1, 5] was −0.208 log2 fold change, the Dose.FC.LYZ.S [1, 6] was −0.254 log2 fold change and the Z.LYZ.NS [2, 7] was 0.334. For the same molecule, the Z.LYZ.NS [2, 8] was −1.331, the Z.LYZ.NS [2, 9] was −1.869 and the Z.LYZ.NS [2, 10] was −1.574. It also gave a Dose.FC.LYZ.NS [2, 11] of 0.038 log2 fold change, a Dose.FC.LYZ.NS [2, 12] of −0.153 log2 fold change and a Dose.FC.LYZ.NS [2, 13] of −0.215 log2 fold change. It also gave a Dose.FC.LYZ.NS [2, 14] of −0.181 log2 fold change.
